The structures appear in SMILES notation.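 1) Cells in 96-well plates. 2) Compound, 48 h, 5 concentrations. 3) Linear interpolation between surrounding doses. 4) Unreached endpoint = highest concentration. Definition used: TGI = concentration required for complete inhibition of growth.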

Common to all, as to assay: NCI anticancer screen, dose series, 48 h
The test system of assay [1] is CAKI-1 renal.
The test system of assay [2] is SNB-19 CNS.
Assay [3] has as its system HL-60(TB) leukemia.
The subject of assay [4] is SF-268 CNS.
The subject of assay [5] is A549 NSCLC.
The subject of assay [6] is HCT-15 colon.
For assay [7], the system named is K-562 leukemia.
The subject of assay [8] is NCI-H226 lung.
For assay [9], the system named is OVCAR-4 ovarian.
Assay [10] deals with NCI-H23 lung.

Regarding `Cc1ccc([N+](=O)[O-])cc1S(=O)(=O)Nc1ccc(C2=NN(c3ccc([N+](=O)[O-])cc3[N+](=O)[O-])C(c3ccccc3O)C2)cc1` (stereo not given), the TGI in assay [1], in assay [2], in assay [3], in assay [4], in assay [5] and in assay [6] was above 100 µM throughout. The TGI was above 100 µM in assay [7], above 100 µM in assay [8], above 100 µM in assay [9] and 59.7 µM in assay [10].
On to `Clc1ccc(OCC2NC3C=CC32)cn1` (stereo not given), for which the TGI in [1], in assay [2], in assay [3], in assay [4], in [5] and in assay [6] was above 100 µM in each case. Besides, the TGI in assay [7], in [8], in assay [9] and in [10] was above 100 µM throughout.
For the compound `O=C1C=CC2(O[C@@H](Cc3ccccc3)[C@H](Cc3ccccc3)O2)C(SC(=O)c2ccccc2)C1` (stereo not given in full), the TGI in assay [1] was 3.71 µM; in assay [2] it was 7.28 µM; in [3] it was 4.82 µM; in [4], 2.44 µM; in assay [5], 16.1 µM; in assay [6], 1.71 µM. The TGI in [7] was determined as 89.4 µM; in [8] it was 3.2 µM; in assay [9] it was 4.4 µM; in assay [10] it was 4.67 µM.
In the case of `COc1cc2c3c(cc(Cl)nc3c1OC)C(O)(CC(C)=O)C(=O)N2` (stereo not given), the TGI in assay [1] is 37.7 µM; in assay [2], above 54.7 µM; in assay [3], 24.1 µM; in assay [4], 18 µM; in assay [5], above 62.3 µM; in assay [6] it was above 62.5 µM. Further, the TGI was above 95 µM in [7], above 57.3 µM in assay [8], 32.4 µM in [9] and above 60.8 µM in assay [10].
Consider `[N-]=[N+]=C1CNC(=O)NC1=O`, for which the TGI in [1], in [2], in assay [3], in assay [4], in assay [5] and in assay [6] was above 100 µM throughout. Moreover, the TGI in [7], in assay [8], in [9] and in assay [10] was above 100 µM throughout.
In the case of `N#CC1N(C(=O)c2ccc(F)cc2)c2ccccc2N1C(=O)c1ccc(F)cc1`, the TGI in assay [1], in [2], in assay [3], in assay [4], in assay [5] and in [6] was above 100 µM throughout. In addition, the TGI in assay [7], in assay [8], in assay [9] and in [10] was above 100 µM throughout.
For the compound `COC(=O)c1ccc(C)cc1C1CN=NC12Cc1cc(C)c(C)cc1C2=O` (stereo not given), the TGI was above 100 µM in assay [1]; above 100 µM in assay [2]; 55.2 µM in assay [3]; above 100 µM in assay [4]; above 100 µM in assay [5]; above 100 µM in assay [6]. Moreover, the TGI in assay [7], in [8], in [9] and in assay [10] was above 100 µM throughout.
Turning to `O=C(c1ccc(Cl)cc1)N(Cc1cccnc1)C(=S)N(Cc1cccnc1)C(=O)c1ccc(Cl)cc1`, the TGI is above 100 µM in assay [1]; above 100 µM in assay [2]; 85.2 µM in assay [3]; 79.5 µM in assay [4]; above 100 µM in [5]; above 100 µM in assay [6]. In addition, the TGI in assay [7] is above 100 µM; in assay [8], above 100 µM; in assay [9], 79.7 µM; in assay [10] it was above 100 µM.
With `CC(C)OC(=O)c1ccc(CCC2=CC(=O)C(Br)=CC2=O)cc1`, the TGI was 38.4 µM in assay [1]; 29.2 µM in assay [2]; 9.25 µM in assay [3]; 32.3 µM in assay [4]; above 100 µM in [5]; 29.6 µM in assay [6]. Also, the TGI in assay [7] is 9.12 µM; in [8] it was 71.9 µM; in assay [9], 23.1 µM; in assay [10] it was 26.2 µM.
Regarding `O=C1c2ccccc2C(=O)N1C(=S)c1ccccc1`, the TGI in assay [1], in assay [2], in assay [3], in assay [4], in assay [5] and in assay [6] was above 100 µM in each case. Further, the TGI in [7], in assay [8], in [9] and in assay [10] was above 100 µM in each case.
For the compound `CCN(CC)C(=S)SNCCc1ccc(S(N)(=O)=O)cc1`, the TGI in [1] is 29 µM; in assay [2], 50.9 µM; in assay [3], above 67.2 µM; in [4], 35.9 µM; in assay [5] it was 26.5 µM; in assay [6], 38.5 µM. Also, the TGI in [7] was above 100 µM; in assay [8], above 84.7 µM; in [9] it was 35.6 µM; in assay [10], 38.7 µM.
Take `O=C(c1ccc(Cl)cc1)N(C(=S)N1CCN(c2ccccn2)CC1)c1ccccc1`: the TGI in assay [1], in assay [2], in [3], in assay [4], in [5] and in [6] was above 100 µM throughout. Further, the TGI in assay [7], in assay [8], in [9] and in assay [10] was above 100 µM in each case.
Regarding `N=C1N=C(N)c2cc3c(cc21)SCCSCCCSCCS3`, the TGI was above 63.4 µM in assay [1]; 32.3 µM in assay [2]; 20.6 µM in assay [3]; 32.4 µM in [4]; 49.8 µM in assay [5]; 32.3 µM in assay [6]. Further, the TGI in assay [7] was 31.8 µM; in assay [8], above 73.2 µM; in [9], 56.5 µM; in [10] it was 16.2 µM.
